According to PubChem BioAssay (NCI):
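All cell lines were grown in 96-well plates and treated with compound for 48 hours. At the GI50, growth is halved. The concentration for full growth arrest is given as TGI.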

Experiments:
Assay in all cases: NCI-60 cell line screen, 48 h
OVCAR-3 ovarian = tested on: OVCAR-3 ovarian
HOP-92 NSCLC = tested on: HOP-92 NSCLC
UO-31 renal = tested on: UO-31 renal
IGROV1 ovarian = tested on: IGROV1 ovarian
RPMI-8226 leukemia = tested on: RPMI-8226 leukemia
MOLT-4 leukemia = tested on: MOLT-4 leukemia
SW-620 colon = tested on: SW-620 colon
HOP-62 NSCLC = tested on: HOP-62 NSCLC
PC-3 prostate = tested on: PC-3 prostate
LOX IMVI melanoma = tested on: LOX IMVI melanoma

| SMILES | GI50 (OVCAR-3 ovarian) | TGI (OVCAR-3 ovarian) | GI50 (HOP-92 NSCLC) | TGI (HOP-92 NSCLC) | GI50 (UO-31 renal) | TGI (UO-31 renal) | GI50 (IGROV1 ovarian) | TGI (IGROV1 ovarian) | GI50 (RPMI-8226 leukemia) | TGI (RPMI-8226 leukemia) | GI50 (MOLT-4 leukemia) | TGI (MOLT-4 leukemia) | GI50 (SW-620 colon) | TGI (SW-620 colon) | GI50 (HOP-62 NSCLC) | TGI (HOP-62 NSCLC) | GI50 (PC-3 prostate) | TGI (PC-3 prostate) | GI50 (LOX IMVI melanoma) | TGI (LOX IMVI melanoma) |
| --- | --- | --- | --- | --- | --- | --- | --- | --- | --- | --- | --- | --- | --- | --- | --- | --- | --- | --- | --- | --- |
| CC1OC(OC2C(OC3CCC4(C)C(CCC5(C)C4CC=C4C6CC(C)(C)CCC6(CO)C(O)CC45C)C3(C)C)OC(C(=O)O)C(OC3OC(COC4OC(CO)C(O)C(O)C4O)C(O)C(O)C3O)C2O)C(O)C(O)C1O (centres undefined) | 12.7 µM | 24.7 µM | 3.56 µM | 15.3 µM | 5.45 µM | 15.9 µM | 7.1 µM | 17.5 µM | 7.79 µM | 23.5 µM | 2.35 µM | 8.42 µM | 12.5 µM | 24.2 µM | 14.8 µM | 30.9 µM | 1.56 µM | 3.92 µM | 10.7 µM | 21.6 µM |
| CN(C)c1ccc(N=C(C#N)c2nc(N)nc(N3CCOCC3)n2)cc1 | 34.6 µM | > 100 µM | 28.3 µM | > 100 µM | 71.7 µM | > 100 µM | 34 µM | > 100 µM | 74.3 µM | > 100 µM | 60.8 µM | > 100 µM | > 100 µM | > 100 µM | 55.2 µM | > 100 µM | 44.1 µM | > 100 µM | 22.1 µM | 53.5 µM |
| C=C(CNCCc1ccc(O)cc1)[C@@H]1CC[C@]2(CO)CC[C@]3(C)[C@H](CC[C@@H]4[C@@]5(C)CCC(NCCO)C(C)(C)[C@@H]5CC[C@]43C)[C@@H]12 (some centres undefined) | 1.73 µM | 3.51 µM | 1.09 µM | 2.41 µM | 1.47 µM | 2.86 µM | 1.94 µM | 3.9 µM | 1.43 µM | 4 µM | 0.657 µM | 2.92 µM | 1.27 µM | 2.68 µM | 1.64 µM | 3.23 µM | 1.6 µM | 3.29 µM | 1.39 µM | 2.88 µM |
| COC(=O)C1(C)CCc2c(ccc3ccccc23)C1=O (centres undefined) | – | > 100 µM | – | > 100 µM | – | > 100 µM | – | 95.7 µM | – | 60.6 µM | – | > 100 µM | – | > 100 µM | – | > 100 µM | – | > 100 µM | – | > 100 µM |
| COc1ccc2c(c1)C(=O)/C(=C/c1ccc(OCC(=O)c3ccc(Cl)cc3)cc1)O2 | 12.3 µM | 24.8 µM | 15.7 µM | 37.1 µM | 10.4 µM | 25.6 µM | 11.1 µM | 35.3 µM | 3.87 µM | 21.6 µM | 3.03 µM | 12.8 µM | 3.48 µM | 10.6 µM | 43.8 µM | > 100 µM | 14.7 µM | 69.1 µM | 5.44 µM | 19.8 µM |
| O=C1c2cccnc2-c2nc(-c3ccccc3)cc3c2c1nc1ccccc13 | 0.31 µM | > 100 µM | 20.3 µM | 80.4 µM | 3.8 µM | 11.2 µM | 2.35 µM | 8.92 µM | 0.21 µM | – | 2.5 µM | 14.8 µM | 2.56 µM | > 35.2 µM | 14.5 µM | 28.3 µM | 3.42 µM | 73.2 µM | 6.37 µM | 32.6 µM |
| CCOC(=O)/C(=C/c1c(-c2ccccc2)[nH]c2ccccc12)C(=O)c1ccc(Cl)cc1 | 3.35 µM | > 100 µM | 1.93 µM | 15 µM | 3.86 µM | > 100 µM | 19.9 µM | > 100 µM | 2.92 µM | > 100 µM | 2.57 µM | 8.21 µM | 4.53 µM | > 100 µM | 4.59 µM | > 100 µM | 3.08 µM | > 100 µM | 3.64 µM | > 100 µM |
| C/C(=N\NC(=S)Nc1ccccc1)c1ccccn1 | < 0.01 µM | 0.0538 µM | < 0.0162 µM | 0.607 µM | 0.0565 µM | 2.75 µM | < 0.0163 µM | 9.26 µM | 0.0296 µM | 39.3 µM | < 0.0278 µM | 16.9 µM | 0.0242 µM | 2.94 µM | 0.0708 µM | 3.61 µM | < 0.0171 µM | 5.73 µM | 0.0395 µM | 2.04 µM |
| CCN(CC)c1ccc(/C=C/C2=[N+](C)c3ccccc3C2(C)C)cc1 | 0.281 µM | 13.2 µM | 0.766 µM | > 35.2 µM | 3.26 µM | 18.1 µM | 0.709 µM | > 85.6 µM | 0.0557 µM | > 61.6 µM | 0.557 µM | > 100 µM | 0.36 µM | 19.4 µM | 0.697 µM | 16.3 µM | 0.167 µM | 31.7 µM | 0.251 µM | 23 µM |
| NCCCNCCCNc1nc2ccccc2c2[nH]c3ccccc3c12 | 0.449 µM | 2.43 µM | 0.173 µM | 0.747 µM | 0.309 µM | 3.17 µM | 0.0837 µM | 1.03 µM | 0.343 µM | 3.51 µM | 0.0252 µM | 3.62 µM | 0.19 µM | 1.64 µM | 0.0632 µM | 1.18 µM | 0.481 µM | 2.14 µM | 0.0363 µM | 1.12 µM |
| c1ccc(COc2ccc(Nc3ncnc4ccc(-c5ccco5)cc34)cc2)cc1 | 5.4 µM | 12.8 µM | 0.379 µM | 7.21 µM | 4.76 µM | > 22.1 µM | 7.11 µM | > 23.1 µM | 5.5 µM | 20.2 µM | 11.7 µM | > 25 µM | 7.47 µM | 22.7 µM | 5.85 µM | 16 µM | 8.47 µM | > 23.5 µM | 4.36 µM | 8.96 µM |
